Patent US20110319611A1, “BENZOXAZINONE COMPOUND, METHOD FOR PRODUCING THE SAME, AND PHARMACEUTICAL COMPOSITION CONTAINING THE SAME” (Chang Gung University, priority 2010, published 2011)

How the values were obtained:
Human neutrophils [1] = test: Release of human neutrophil elastase (NE) from FMLP/CB-activated neutrophils; format: cell-based; settings: substrate MeO-Suc-Ala-Ala-Pro-Val-p-nitroanilide, 405 nm, mean ± S.E.M. (n = 3)
Method: (§1) Human neutrophils were prepared by the following procedure. […] The precipitate thus obtained was treated with a hypotonic solution, i.e., 0.2% NaCl, to lyse erythrocytes, followed by removal of the lysed erythrocytes using centrifugation at 200 g and 4° C. for 8 minutes so as to obtain the neutrophils. […] The neutrophil suspension was stored at 4° C. before use.
The neutrophils obtained in the section of “3. […] In a control group, 100% DMSO was used to substitute the compound solution. […] The reacted mixture was added with 1.5 μl of cytochalasin B (CB, 0.5 mg/ml) and was incubated for 3 minutes, followed by addition with 1.5 μl of formyl-L-methionyl-L-leucyl-L-phenylalanine (FMLP, 100 μM) and reaction for 10 minutes to activate neutrophils.

Human neutrophils [2] = test: O2•− generation assay (SOD-inhibitable reduction of ferricytochrome c) in FMLP/CB-activated neutrophils; format: cell-based; settings: Neutrophil, absorbance 550 nm, mean ± S.E.M. (n = 3)
Method: as §1
The O2^•− generation assay was based on the superoxide dismutase (SCD)-inhinitable reduction of ferricytochrome c. […] The neutrophils obtained in the section of “3. […] In a control group, 100% DMSO was used to substitute the compound solution. Moreover, in the positive control group, diphenyleneiodonium (DPI) was used to substitute the compound solution. The reacted mixture was added with 1.5 μl of cytochalasin B (CB, […]) and was incubated for […], followed by addition with 1.5 μl of formyl-L-methionyl-L-leucyl-L-phenylalanine (FMLP, 100 μM) and reaction for 10 minutes to activate neutrophils.

human NE = molecular target: T1, human NE (Homo sapiens, UniProt P08246); test: Inhibition of commercially available pure neutrophil elastase; format: biochemical; settings: 0.0075 U/ml human NE (Sigma), 96-well plate, 30 minutes, 405 nm
T1 construct: purchased Sigma, St. Louis, Mo; USA
T1 sequence (P08246 30-267): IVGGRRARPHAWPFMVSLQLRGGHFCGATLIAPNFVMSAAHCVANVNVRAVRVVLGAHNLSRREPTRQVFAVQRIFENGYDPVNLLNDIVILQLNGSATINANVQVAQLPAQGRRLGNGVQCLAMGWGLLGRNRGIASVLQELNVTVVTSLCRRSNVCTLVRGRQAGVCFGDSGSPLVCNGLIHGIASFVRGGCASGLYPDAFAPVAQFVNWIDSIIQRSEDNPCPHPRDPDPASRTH
Description: In a control group, 0.1% DMSO was used to substitute the compound solution. Moreover, in the positive control group, PMSF was used to substitute the compound solution.

[3] = molecular target: T2, human neutrophil elastase (Homo sapiens, UniProt P08246); test: Inhibition of NE activity in supernatant of activated neutrophils; format: biochemical; settings: supernatant of FMLP/CB-activated human neutrophils containing NE; mean ± S.E.M. (n = 3)
T2 construct: endogenous in cells; cell-free supernatant used
T2 sequence (P08246 30-267): T1 sequence (P08246 30-267)
Description: The neutrophils obtained in the section of “3. […] In a control group, 100% DMSO was used to substitute the compound solution. Moreover, in the positive control group, PMSF was used to substitute the compound solution.

[4] = test system: lung injury caused by trauma-hemorrhagic shock; test: Water content assay of lung tissue after trauma-hemorrhagic shock; format: in vivo, rat
Method: (§2) Specifically, the effects of compound E7 on water content in lung tissues and myeloperoxidase (MPO) activity were measured.
(§3) In brief, male Sprague-Dawley (S.D.) rats having a body weight ranging from 275 to 325 g were obtained from National Laboratory Animal Center. The rats were randomly divided into four groups including experimental groups 1 and 2 and sham-operated groups 1 and 2. Each group included 8 rats. All rats were raised in an air-conditioned room with the following conditions: a light-dark cycle of 12-14 hours of illumination and 10-12 hours of darkness, 20-26° C., and relative humidity of 40-60%. The rats were free to have sufficient drinking water and feed and lived in the aforesaid room for one week to adapt to the environment. Before beginning the experiments, the rats were starved overnight while allowed to have sufficient drinking water ad libitum. The rats were anesthetized by isoflurane (Attane, Minrad, Bethlehem, Pa.) inhalation and were subjected to 5-cm midline laparotomy in the abdomen. […] The total amount of the blood volume of maximum bleed-out was recorded. […]
The left upper lobe was weighted and the weight was referred to as “wet weight”. The left upper lobe was then dried at 80° C. for 24 hours, and the weight, referred to as dry weight, thereof was measured. […]
The data were analyzed using the GraphPad Prism software (GraphPad Software, San Diego, Calif.). […]

[5] = test system: lung injury caused by trauma-hemorrhagic shock; test: Myeloperoxidase (MPO) activity in lung tissue after trauma-hemorrhagic shock; format: in vivo, rat
Method: as §2, §3
Activity of MPO was determined based on a method disclosed in H. P. Yu et al., Biochem. Pharmacol., 78: 983-992, 2009. […]

[6] = sham-operated rats, E7 (group 2) vs vehicle (group 1)

Row | SMILES | IC50 (Human neutrophils [1]; Neutrophil) [µM] | IC50 (Human neutrophils [2]) [µM] | also measured
1 | COc1ccccc1-c1nc2c(Cl)cccc2c(=O)o1 [CE5, 8-chloro-2-(2′-methoxylphenyl)-4H-benzo[d][1,3]oxazin-4-one] | 1.91 ± 0.14 | 10 ± 0.59 | –
2 | O=S(=O)(F)Cc1ccccc1 [PMSF, phenylmethylsulfonyl fluoride] | – | – | IC50 (human NE): 52.2 ± 1.07 µM; IC50 (Human neutrophils [1]): 110 ± 25 µM; IC50 [3]: 95.2 ± 19.2 µM
3 | O=c1oc(-c2ccccc2F)nc2c(Cl)cccc12 [CE1, 8-chloro-2-(2′-fluorophenyl)-4H-benzo[d][1,3]oxazin-4-one] | 6.03 ± 0.65 | > 25 | –
4 | O=c1oc(-c2ccccc2Br)nc2c(Cl)cccc12 [CE3, 8-chloro-2-(2′-bromophenyl)-4H-benzo[d][1,3]oxazin-4-one] | 1.69 ± 0.3 | 6.56 ± 3.09 | –
5 | c1ccc2c(c1)[I+]c1ccccc1-2 [DPI, diphenyleneiodonium] | – | 0.97 ± 0.395 | –
6 | O=c1oc(-c2ccccc2Br)nc2cccc(Cl)c12 [Compound E7, 5-chloro-2-(2′-bromophenyl)-4H-benzo[d][1,3]oxazin-4-one] | – | – | water content in lung tissue (wet weight/dry weight) [4, 6]: no significant difference; water content in lung tissue (wet weight/dry weight) ([4]; trauma-hemorrhage rats, E7 (experimental group 2) vs vehicle (experimental group 1), 24 hours after resuscitation, p<0.001): significantly reduced; MPO activity in lung tissue [5, 6]: no significant difference; MPO activity in lung tissue ([5]; trauma-hemorrhage rats, E7 (experimental group 2) vs vehicle (experimental group 1), 24 hours after resuscitation, p<0.01): significantly reduced

More lines, main results first:

Row | IC50 (Human neutrophils [1]; Neutrophil) [µM] | IC50 (Human neutrophils [2]) [µM] | SMILES | also measured
7 | > 25 | 17.5 ± 2.69 | Cc1ccccc1-c1nc2c(Cl)cccc2c(=O)o1 [CE4, 8-chloro-2-(2′-methylphenyl)-4H-benzo[d][1,3]oxazin-4-one] | –
8 | 56.5 ± 9.13 | – | CC(C)C[C@H](NC(=O)N[C@H](C(=O)N[C@@H](CCC(N)=O)C(=O)N[C@@H](C)C=O)[C@@H]1CCNC(=N)N1)C(=O)O [Elastatinal, elastatinal] | –
9 | 1.89 ± 1.1 | 8.66 ± 1.44 | O=c1oc(-c2ccccc2Cl)nc2c(Cl)cccc12 [CE2, 8-chloro-2-(2′-chlorophenyl)-4H-benzo[d][1,3]oxazin-4-one] | –
